Tests used:
[1] = system: HL-60 cells (human promyelocytic leokemia cells); experiment: Cancer cell growth suppressing action using HL-60 cells (Cell counting kit-8); type: cell-based; conditions: 24 hours, 6.3-100 μM, viable cells vs DMSO only, read-out: Cell growth suppressing ability to HL-60 (IC50)
Experimental: Next, in order to see the effect of the hydroxystilbene derivative to cancer cells, cancer cell growth suppressing action using HL-60 cells (human promyelocytic leokemia cells) was tested.
For culturing the HL-60 cells, an enriched culture medium “RPMI-1640” (manufactured by Sigma-Aldrich Japan) containing 4 mM glutamine (L-Glutamine, manufactured by Sigma-Aldrich Japan) and 10% FBS (Foetal Bovine Serum, manufactured by Biological Industries) was used. For the test, a 96-well plate for cell culture (manufactured by Corning Japan) was used, and the HL-60 cells whose number of cells was adjusted to be 5×10^5 cells/mL were seeded at 100 μL per well
As samples, p-coumaric acid, ferulic acid, caffeic acid, sinapic acid, resveratrol, pterostilbene, and the UHA1027, the UHA1028, the UHA1123, the UHA1124, the UHA1125, the UHA7032, the UHA7033, and the UHA9021 which were already purified were used. With respect to the preparation of the samples, each compound was dissolved in DMSO (Wako Pure Chemical Industries, Ltd.), and then adjusted in such a manner that the final concentration in the HL-60 cell culture solutions was 6.3 μM, 12.5 μM, 25 μM, 50 μM, and 100 μM. Then, the test was started.
The number of viable cells was quantified by an MTT method using a “Cell counting kit-8” (manufactured by DOJINDO LABORATORIES). 24 hours after starting the test, 10 μL of a Cell counting kit-8 solution was added to each well, and then sufficiently stirred. After a shading reaction for 1 hour, the absorbancy was measured at a measurement wavelength of 450 nm using a plate leader (Biorad Laboratories, Inc., “BIO-RAD Model 680”). Then, the cell viability was calculated based on the obtained data. The cell viability is a value obtained by setting the number of viable cells of the culture liquid to which only DMSO as a solvent was added to 100%, and then calculating the number of viable cells under the concentration of each compound as a relative value. From the relationship between the concentration of each compound and the cell viability, the concentration IC50 (50% inhibition concentration) at which the cell growth is suppressed by 50% was calculated.

[2] = system: SCC-4 cells (human oral cancer cells, ATCC); experiment: Cancer cell growth suppressing action using SCC-4 oral cancer cells (Cell counting kit-8); type: cell-based; conditions: 6.3-100 μM, Cell counting kit-8, DMSO negative control, read-out: Cell growth suppressing ability (IC50)
Experimental: Next, in order to see the effect of the hydroxystilbene derivative to oral cancer cells, cancer cell growth suppressing action using SCC-4 cells (human oral cancer cells, ATCC) was tested.
For culturing the SCC-4 cells, a DMEM/F-12 (1:1) culture medium (manufactured by GIBCO) containing 400 ng/mL hydrocortisone (manufactured by Sigma-Aldrich Japan), 1% antibiotic-antimycotic (manufactured by GIBCO), and 10% FBS (Foetal Bovine Serum, manufactured by ATCC) was used. For the test, a collagen I coat 96 well plate for cell culture (manufactured by Japan BD) was used, and SCC-4 cells whose number of cells was adjusted to be 5×10^5 cells/mL were seeded at 100 μL per well. The cells were cultured under the conditions of 37° C. and 5% CO2 for 24 hours, and were used for the test in a confluent state of 80% or higher.
As samples, p-coumaric acid, ferulic acid, caffeic acid, sinapic acid, resveratrol, pterostilbene, piceatannol, and the UHA1027, the UHA1028, the UHA1123, the UHA1124, the UHA1125, the UHA7032, the UHA7033, the UHA7034, and the UHA9021 which were already purified were used. With respect to the preparation of the samples, each compound was dissolved in DMSO, and then prepared in such a manner as to achieve 0.63 mM, 1.25 mM, 2.5 mM, 5 mM, and 10 mM. The samples were added in such a manner that the final concentration in the SCC-4 cell culture solution was 6.3 μM, 12.5 μM, 25 μM, 50 μM, and 100 μM. Then, the test was started. A sample to which an equivalent amount of only DMSO as the solvent was added was used as a negative control.
The number of viable cells was quantified by an MTT method using a “Cell counting kit-8” in the same manner as in Example 15, and the concentration IC50 at which the cell growth is suppressed by 50% was calculated.

[3] = target: rat intestine derived lipase; experiment: Lipase inhibitory action test (Lipase kit S); type: biochemical; conditions: rat intestine acetone powder lipase, 30° C., 10 minutes reaction
Experimental: In order to see the inhibitory action to lipase of the hydroxystilbene derivative, an inhibitory action test using rat intestine derived lipase was performed.
As lipase, one obtained by suspending 100 mg of rat derived intestine acetone powder (manufactured by Sigma-Aldrich Japan) in 1 mL of 100 mM citric acid buffer (pH 6.0), stirred at 4° C. for 1 hour, centrifuging the same (at 15000 rpm for 45 minutes at 4° C.), and then diluting the supernatant by 1500 times was used as a lipase solution.
As samples, p-coumaric acid, caffeic acid, sinapic acid, resveratrol, and the UHA1027, the UHA1028, and the UHA9021 which were already purified were used. With respect to the preparation of the samples, each compound was dissolved in DMSO, and then prepared in such a manner as to achieve 0.1 mM, 0.5 mM, 1 mM, 2 mM, and 4 mM.
For measuring the activity, a “Lipase kit S” (Trade name, manufactured by Dainippon Pharmaceutical Co., Ltd.) was used. First, in accordance with a preparation method described in the catalog of the Lipase kit S, a color developing liquid was prepared. Reaction liquids in which 70 μl of the color developing liquid, 2 μl of an esterase inhibitor, 10 μl of the lipase solution, and 10 μl of the samples (Final concentration: 10 μM, 50 μM, 100 μM, 200 μM, 400 μM, and 1000 μM) were mixed were prepared, preincubated at 30° C. for 5 minutes, and then 8 μl of a substrate solution described in the catalog was added. Then, a reaction was started. After reacting for 10 minutes, 150 μl of a reaction stop liquid prepared in accordance with the preparation method described in the catalog of the Lipase kit S was added to stop the reaction. The resultant substance was subjected to a measurement of absorbancy at a wavelength of 415 nm. A reaction liquid to which only DMSO as the solvent of the sample was added was used as a positive control and one to which 10 μl of 100 mM citric acid buffer (pH 6.0) was added instead of the lipase solution was used as a negative control. From the relationship between the lipase inhibition rate calculated based on the data obtained therefrom and the concentration of each compound, the concentration IC50 at which the lipase activity is inhibited by 50% was calculated.

[4] = Physicochemical properties: solubility in solvents

IC50 [1] [µM] | IC50 [2] [µM] | IC50 [3] [µM] | Solubility: DMSO [4] | Solubility: Chloroform [4] | Solubility: Ethanol [4] | Solubility: Ethyl acetate [4] | Solubility: Methanol [4] | Solubility: Water [4] | Structure (SMILES)
5.9 | 28.9 | 452 | Soluble | Soluble | Soluble | Soluble | Soluble | Poorly soluble | CC(c1ccc(O)c(O)c1)c1c(O)cc(/C=C/c2ccc(O)cc2)cc1O (single isomer, unassigned) [UHA1027]
– | 49.6 | – | Soluble | Soluble | Soluble | Soluble | Soluble | Poorly soluble | CC(c1ccc(O)cc1)c1c(O)cc(/C=C/c2ccc(O)c(O)c2)cc1O (single isomer, unassigned) [UHA7034]
43.4 | 38.2 | 331 | Soluble | Soluble | Soluble | Soluble | Soluble | Poorly soluble | CC(c1ccc(O)cc1)c1c(O)cc(/C=C/c2ccc(O)cc2)cc1O (single isomer, unassigned) [UHA9021]
> 100 | > 100 | > 1000 | – | – | – | – | – | – | O=C(O)/C=C/c1ccc(O)c(O)c1 [Coffeic acid, caffeic acid, reference compound]
> 100 | > 100 | – | – | – | – | – | – | – | COc1cc(/C=C/C(=O)O)ccc1O [Ferulic acid, ferulic acid, reference compound]
– | > 100 | – | – | – | – | – | – | – | Oc1cc(O)cc(/C=C/c2ccc(O)c(O)c2)c1 [Piceatannol, piceatannol, reference compound]
60.4 | 73.9 | – | – | – | – | – | – | – | COc1cc(/C=C/c2ccc(O)cc2)cc(OC)c1 [Pterostilbene, pterostilbene, reference compound]
76.5 | > 100 | > 1000 | – | – | – | – | – | – | Oc1ccc(C=Cc2cc(O)cc(O)c2)cc1 [Resveratrol, resveratrol, reference compound]
> 100 | > 100 | > 1000 | – | – | – | – | – | – | COc1cc(/C=C/C(=O)O)cc(OC)c1O [Sinapic acid, sinapic acid, reference compound]
14.1 | 17.6 | 510 | Soluble | Soluble | Soluble | Soluble | Soluble | Poorly soluble | COc1cc(C(C)c2c(O)cc(/C=C/c3ccc(O)cc3)cc2O)cc(OC)c1O (stereo not shown) [UHA1028]
31.5 | 50.3 | – | Soluble | Soluble | Soluble | Soluble | Soluble | Poorly soluble | COc1cc(C(C)c2c(O)cc(/C=C/c3ccc(O)cc3)cc2O)ccc1O (stereo not shown) [UHA1123]
14.4 | 17.4 | – | Soluble | Soluble | Soluble | Soluble | Soluble | Poorly soluble | COc1cc(C(C)c2c(O)cc(O)cc2/C=C/c2ccc(O)cc2)ccc1O (stereo not shown) [UHA1124]
13.4 | 26.1 | – | Soluble | Soluble | Soluble | Soluble | Soluble | Poorly soluble | COc1cc(C(C)c2c(O)cc(/C=C/c3ccc(O)cc3)c(C(C)c3ccc(O)c(OC)c3)c2O)ccc1O (stereo not shown) [UHA1125]
31 | 37 | – | Soluble | Soluble | Soluble | Soluble | Soluble | Poorly soluble | COc1cc(/C=C/c2ccc(O)cc2)c(C(C)c2ccc(O)cc2)c(OC)c1 (stereo not shown) [UHA7032]
35.5 | 41.7 | – | Soluble | Soluble | Soluble | Soluble | Soluble | Poorly soluble | COc1cc(/C=C/c2ccc(O)cc2)cc(OC)c1C(C)c1ccc(O)cc1 (stereo not shown) [UHA7033]
> 100 | > 100 | > 1000 | – | – | – | – | – | – | O=C(O)/C=C/c1ccc(O)cc1 [p-coumaric acid, reference compound]

— patent US9340477B2, “Process for production of hydroxystilbene derivative having physiological activity” (UHA MIKAKUTO CO., LTD., priority 2010, dated 2016)
